This note sets out measurements from patent US6750348B1, “Chemokine receptor binding heterocyclic compounds” (AnorMED, Inc., priority 1999, dated 2004).

Structures are written as SMILES.

What all share (type): cell-based
For one assay, the system named is HIV-1 NL4.3 or IIIB. Description: Inhibition of HIV-1 (NL4.3 or IIIB) replication in MT-4 cells (MTT). Conditions: Human immunodeficiency virus 1, IIIB, MT4, read-out: EC50, inhibition of HIV-1 NL4.3 or IIIB replication. The method, boiled down: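 CXCR4-tropic virus infected MT-4 cells at MOI 0.01 (100× CCID50) across a range of compound concentrations, with cytotoxicity run in parallel. Viable cells counted by MTT after 5 days. EC50 is the concentration protecting 50% of infected cells from viral cytopathicity.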

A further assay has as its system HIV-1 BaL (CCR5 using). Nature of the assay: Inhibition of HIV-1 (BaL) replication in PHA-stimulated PBMC's (MTT). Conditions: Human immunodeficiency virus 1, BAL, MTT assay. As for the experimental part:
Compounds were tested for their ability to inhibit HIV-1 replication in MT-4 cells or PBMC's (peripheral blood mononucleocytes) using published procedures (for example, see: Labrosse et al. J. Virol. 1998, 6381-6388; Simmons et al. J. Virol. 1998, 8453-8457; Donzella et al. Nature Medicine 1998, 72-77; Schols et al. J. Exp. Med. 1997, 1383-1388; De Clercq et al. Antiviral Res. 1997, 147-156; and Bridger et al. U.S. patent application Ser. No. 09/111,895). In addition to the above references, experimental methods for performing anti-viral assays can also be found in: Bridger et al. J. Med. Chem. 1995, 38, 366-378; Bridger et al. J. Med. Chem. 1996, 39, 109-119; Bridger et al. U.S. Pat. No. 5,698,546; Bridger et al. U.S. Pat. No. 5,583,131; Bridger et al. U.S. Pat. No. 5,817,807; De Clercq et al. Antimicrob. Agents and Chemother. 1994, 38, 668-674.
The HIV-1 strain BaL is M-tropic (macrophage tropic) strain that exclusively uses CCR5 as a co-receptor for entry into cells. PBMC's (from healthy donors) express all chemokine receptors including CXCR4 and CCR5.
A general note: Tetrazolium dyes change colour on reduction, which living cells bring about.

Assay [1] relates to SDF-1α induced Ca flux in SUP-T1 cells. Description: Inhibition of SDF-1α induced Ca flux in SUP-T1 cells (FLIPR). Conditions: Homo sapiens, at 20 μg/mL, read-out: inhibited SDF-1α induced Ca flux. As to the method:
(§1) Loading dye: Fluo-3, AM (Molecular Probes F-1241) is dissolved in anhydrous DMSO and stored frozen in aliquots. To increase the solubility of the dye in the loading medium, 10% (w/v) pluronic acid (Molecular Probes F-127) is added to the Fluo-3 stock solution immediately before use.
(§2) HBSS+20 mM Hepes buffer+0.2% BSA, pH 7.4. HBSS 10× [(w/o phenol red and sodium bicarbonate (Gibco 14 065-049)]; Hepes buffer 1M (Gibco 15 630-056), BSA (Sigma A3675). The flux buffer is vacuum-filtered and stored refrigerated for a maximum of 5 days. Before use in the experiment, the buffer is warmed at 37° C. in a waterbath.
(§3) The test compounds were diluted in flux buffer and added to 4 wells of a black microplate (4 parallel measurements per compound).
(§4) The chemokines are diluted in flux buffer to concentrations that are 4-fold higher than the desired concentrations required for stimulation of the cells (i.e. 2.5 nM for SDF-1α and 0.6 nM for RANTES). The chemokines were added to untreated 96-well Sero well compound plates (International Medical, Sterilin code 611F96). In the negative control well's (baseline monitoring), flux buffer is added instead of chemokine. As a positive control to check for dye loading efficiency, 20 μM digitonin (final concentration) was also included. The agonist plate was incubated in the FLIPR (37° C.) for 15-30 min.
SUP-T1 cells were centrifuged at room temperature (RT) and re-suspended in loading medium (RPMI-1640 containing 2% FBS and 4 μM Fluo-3, AM). The cells were incubate at room temperature for 45 min. then washed twice in flux buffer then incubated in flux buffer at room temperature for 10 min. The cells were centrifuged and re-suspended in flux buffer at a density of 3×10^6 cells per mL. […] The microplate is then gently centrifuged at room temperature. Homogeneous spreading of the cells on the bottom of the microplate wells was then confirmed with a microscope and the microplate was incubated in the FLIPR (37° C.) for 10 min. prior to testing.
(§5) The FLIPR settings (camera exposure time and laser power) are adjusted to obtain initial fluorescence values between 8,000 and 10,000 units. After monitoring a 20 second-baseline, the agonist (chemokine) (50 μL) is added by automatic pipettor with black pipette tips. Fluorescence is measured simultaneously in all wells of the microplate every 2 seconds (first 2 min) and thereafter every 6 seconds (additional 2 min). The average ca-flux measured in each set of 4 identical wells (one test compound) was calculated by the FLIPR software.
The compounds of the current invention were tested for inhibition of SDF-1α induced Ca flux in SUP-T1 cells using the method described above.

Assay [2] has as its system RANTES induced Ca flux in U87.CCR5 cells. Nature of the assay: Inhibition of RANTES induced Ca flux in U87.CCR5 cells (FLIPR). Particulars: read-out: inhibited RANTES induced Ca flux; for inhibition at 20 µg/mL: U-87-CCR5, at 20 μg/mL; for inhibition at 20 µM: U-87-CCR5, at 20 μM. As for the experimental part:
as §1, §2, §3, §4, §5
U87.CCR5 cells were seeded into the black microplates (Costar 3603) on the day before the experiment. The culture medium was removed from the cells and 100 μL of loading medium (DMEM+10% FBS+4 μM Fluo-3, AM) was added to each well and the plate was incubate at 37° C. for 45 min. The loading medium was then removed an the cells were washed twice with flux buffer using the CELL WASH microplate washer (Labsystems) followed by incubation in flux buffer for 10 min. at room temperature (the washing procedure was repeated twice). Finally, the wash buffer was removed from the microplate wells and 150 μL of the test compound, diluted in flux buffer to the desired concentration. The microplate was then incubated in the FLIPR drawer for 10 min. prior to testing. Measurements were performed as described above.
The compounds of the current invention were tested for inhibition of RANTES induced Ca flux in U87.CCR5 cells.

By EC50 is commonly meant the midpoint of the concentration-response curve. Consider `c1ccc(NCCN(Cc2ccc(CNCc3ccccn3)cc2)C2CCCc3cccnc32)cc1` (stereo not drawn) [Example 34, N-(2-pyridinylmethyl)-N′-[2-[(phenyl)amino]ethyl]-N′-(5,6,7,8-tetrahydro-8-quinolinyl)-1,4-benzenedimethanamine], for which the EC50 in the assay with HIV-1 NL4.3 or IIIB and in the assay on HIV-1 BaL (CCR5 using) was < 20 µg/mL in each case.

Take `c1ccc(CNCc2ccc(CNC3CCCc4ncccc43)cc2)nc1` (stereo not drawn) [Example 13, N-(2-pyridinylmethyl)-N′-(5,6,7,8-tetrahydro-5-quinolinyl)-1,4-benzenedimethanamine]: the EC50 in the assay on HIV-1 NL4.3 or IIIB and in the assay with HIV-1 BaL (CCR5 using) was < 20 µg/mL throughout.

For `C[C@H](N)C(=O)N(Cc1ccc(CNCc2ccccn2)cc1)C1CCCc2cccnc21` (stereo partly drawn) [Example 73, N-[[4-[[(2-pyridinylmethyl)amino]methyl]phenyl]methyl]-N-(5,6,7,8-tetrahydro-8-quinolinyl)-(L)-alaninamide], the inhibition at 20 µg/mL in assay [1] and in assay [2] was > 20% throughout.

Turning to `c1ccc(CNCc2ccc(CN(CCNCc3ccco3)C3CCCc4cccnc43)cc2)nc1` (stereo not drawn) [Example 50, N-(2-pyridinylmethyl)-N′-[2-[(2-furanylmethyl)amino]ethyl]-N′-(5,6,7,8-tetrahydro-8-quinolinyl)-1,4-benzenedimethanamine], the inhibition at 20 µg/mL in assay [1] and in assay [2] was > 20% in each case. Further, the EC50 with HIV-1 NL4.3 or IIIB is < 20 µg/mL.

As to `COc1ccc2c(c1)CCC(NCc1ccc(CNCc3ccccn3)cc1)C2` (stereo not drawn) [Example 36, N-(2-pyridinylmethyl)-N′-(6-methoxy-1,2,3,4-tetrahydro-2-naphthalenyl)-1,4-benzenedimethanamine], the concentration giving a half-maximal response (EC50) in the assay with HIV-1 NL4.3 or IIIB and in the assay on HIV-1 BaL (CCR5 using) was < 20 µg/mL each time.

As to `c1ccc(CNCCN(Cc2ccc(CNCc3ccccn3)cc2)C2CCCc3cccnc32)nc1` (stereo not drawn) [Example 49, N-(2-pyridinylmethyl)-N′-[2-[(2-pyridinylmethyl)amino]ethyl]-N′-(5,6,7,8-tetrahydro-8-quinolinyl)-1,4-benzenedimethanamine], the inhibition at 20 µg/mL in assay [1] and in assay [2] was > 20% each time. For the same compound, the half-maximal effective concentration (EC50) in the assay with HIV-1 NL4.3 or IIIB is < 20 µg/mL.

Regarding `O=C([C@@H]1CCCN1)N(Cc1ccc(CNCc2ccccn2)cc1)C1CCCc2cccnc21` (stereo partly drawn) [Example 76, N-[[4-[[(2-pyridinylmethyl)amino]methyl]phenyl]methyl]-N-(5,6,7,8-tetrahydro-8-quinolinyl)-(L)-prolinamide], the inhibition at 20 µg/mL in assay [1] and in assay [2] was > 20% each time.

In the case of `Fc1cccc2c1CC(N(Cc1ccc(CNCc3ccccn3)cc1)Cc1ncc[nH]1)CC2` (stereo not drawn) [Example 44, N-(2-pyridinylmethyl)-N′-(1H-imidazol-2-ylmethyl)-N′-(8-Fluoro-1,2,3,4-tetrahydro-2-naphthalenyl)-1,4-benzenedimethanamine], the EC50 in the assay with HIV-1 NL4.3 or IIIB was < 20 µg/mL. Moreover, the inhibition at 20 µg/mL in assay [2] was > 20%.

`c1ccc(CNCc2ccc(CN(Cc3ncc[nH]3)C3CCCc4ncccc43)cc2)nc1` (stereo not drawn) [Example 14, N-(2-pyridinylmethyl)-N′-(1H-imidazol-2-ylmethyl)-N′-(5,6,7,8-tetrahydro-5-quinolinyl)-1,4-benzenedimethanamine]: the concentration giving a half-maximal response (EC50) with HIV-1 NL4.3 or IIIB and in the assay on HIV-1 BaL (CCR5 using) was < 20 µg/mL throughout.

As to `c1ccc(CNCc2ccc(CNc3cccc4cccnc34)cc2)nc1` [Example 6, N-(2-pyridinylmethyl)-N′-(8-quinolinyl)-1,4-benzenedimethanamine], in the assay with HIV-1 NL4.3 or IIIB, the concentration for a half-maximal effect (EC50) is < 20 µg/mL. The inhibition at 20 µg/mL in assay [2] is > 20%.

On to `NCCCC[C@H](N)C(=O)N(Cc1ccc(CNCc2ccccn2)cc1)C1CCCc2cccnc21` (stereo partly drawn) [Example 77, N-[[4-[[(2-pyridinylmethyl)amino]methyl]phenyl]methyl]-N-(5,6,7,8-tetrahydro-8-quinolinyl)-(L)-lysinamide], for which the inhibition at 20 µg/mL in assay [1] and in assay [2] was > 20% in each case.

Regarding `c1ccc(CNCc2ccc(CN(CCCNCc3ccc4ccccc4c3)C3CCCc4cccnc43)cc2)nc1` (stereo not drawn) [Example 22, N-(2-pyridinylmethyl)-N′-[3-((2-naphthalenylmethyl)amino)propyl]-N′-(5,6,7,8-tetrahydro-8-quinolinyl)-1,4-benzenedimethanamine], the inhibition at 20 µg/mL in assay [1] and in assay [2] was > 20% each time.

Consider `c1ccc(CNCc2ccc(CN(c3nc4ccccc4o3)C3CCCc4cccnc43)cc2)nc1` (stereo not drawn) [Example 67, N-(2-pyridinylmethyl)-N′-(2-benzoxazolyl)-N′-(5,6,7,8-tetrahydro-8-quinolinyl)-1,4-benzenedimethanamine], for which the concentration giving a half-maximal response (EC50) in the assay on HIV-1 NL4.3 or IIIB was < 20 µg/mL. The inhibition at 20 µg/mL in assay [2] was > 20%.

`c1ccc(CCN(Cc2cccc(CNCc3ccccn3)c2)Cc2ccccn2)cc1` [Example 109, N-[-(phenyl)ethyl]-N,N′-bis(2-pyridinylmethyl)-1,3-benzenedimethanamine]: the inhibition at 20 µM in assay [2] is > 20%.

`N[C@@H]1CCCC[C@H]1N(Cc1ccc(CNCc2ccccn2)cc1)C1CCCc2cccnc21` (relative stereo) [Example 68, N-(2-pyridinylmethyl)-N′-(trans-2-aminocyclohexyl)-N′-(5,6,7,8-tetrahydro-8-quinolinyl)-1,4-benzenedimethanamine]: the 50% effective concentration (EC50) in the assay with HIV-1 NL4.3 or IIIB is < 20 µg/mL. Further, in assay [2], the inhibition at 20 µg/mL is > 20%.

Turning to `c1ccc(CNCc2cccc(CN(Cc3ccccn3)Cn3ccnc3)c2)nc1` [Example 118, N-[1H-imidazol-1-ylmethyl]-N,N′-bis(2-pyridinylmethyl)-1,3-benzenedimethanamine], the inhibition at 20 µM in assay [2] was > 20%.

As to `c1ccc(CNCc2ccc(CN(CCNCc3ccc4ccccc4c3)C3CCCc4cccnc43)cc2)nc1` (stereo not drawn) [Example 47, N-(2-pyridinylmethyl)-N′-[2-[(2-naphthalenylmethyl)amino]ethyl]-N′-(5,6,7,8-tetrahydro-8-quinolinyl)-1,4-benzenedimethanamine], the inhibition at 20 µg/mL in assay [1] and in assay [2] was > 20% each time. Further, in the assay with HIV-1 NL4.3 or IIIB, the 50% effective concentration (EC50) was < 20 µg/mL.

Take `c1ccc(CN2CCC(N(CCc3ccccn3)Cc3cccc(CNCc4ccccn4)c3)C2)cc1` (stereo not drawn) [Example 179, N-[1-(benzyl)-3-pyrrolidinyl]-N-[2-(2-pyridinyl)ethyl]-N′-(2-pyridinylmethyl)-1,3-benzenedimethanamine]: in assay [2], the inhibition at 20 µM is > 20%.
